Source: patent US20140057877A1, “Therapeutic polyamine compositions and their synthesis” (priority 2002, published 2014)
Where “and” joins values, the source holds several entries; their conditions need not be identical. Equal values may be shown once. Read-outs that look alike come from different tables or passages of the source.

Key:
[1] = Oil water partition coefficients (octanol/water, HPLC); type: physicochemical; conditions: 1:1 octanol/water, shaken 12 hours, HPLC
Method: Partition coefficients were determined by dissolving the compound in a 1:1 mixture of octanol/water and shaking the solution for 12 hours. HPLC was used to determine the partition coefficient. The reported values are the log of the octanol/water partition

[2] = test system: E. coli (GM 7359) alkA tag E. coli mutant; conditions: 60 minutes
Method: (§2) Bacteria were inoculated and cultured in nutrient agar for eighteen hours, using a shaking incubator at 140 r.p.m and 35° C. Medium contained 10 mM HEPES buffer at pH 7. Cells were centrifuged twice in Sorval RC-5 centrifuge 12,000 r.pm.×15 minutes at 4° C. and washed twice in 10 uM HEPES buffer. The resuspended cells were counted using a Hemocrit and diluted to a level of 5×10^1 cells per ml in 10 μM HEPES. The cells, the following toxins; methyl viologen (paraquat), methyl viologen (MPP^+), rotenone, daizoxide, streptozotocin and alloxan, and antidotes were added, reaching final volumes of 1 ml in Eppendorf tubes and placed on a rotator at room temperature. 10 μM diethylenetriaminepentaacetic acid was added to the samples to terminate the reactions at the specified times of either twenty or sixty minutes. 300 μL of cells were plated on Petri plates containing nutrient agar and incubated at 35° C. overnight. Colonies were counted after 20 hours. Percentage survival as compared with culture controls is calculated from the means of triplicates in each experimental group.

[3] = test system: E. coli (GM 7359) alkA tag E. coli mutant; conditions: 60 minutes; remark: listed apart in the source
Method: as §2

S. aureus (ATCC 29213) [4] = assay: Bacterial survival, toxin MPP^+ and antidotes; conditions: 60 minutes
Method: as §2

M. Luteus (ATCC 499732) = assay: Bacterial survival, toxin diazoxide and antidotes
Method: as §2

[5] = test system: E. coli (GM 7359) alkA tag E. coli mutant; assay: Bacterial survival, toxin streptozotocin and antidotes; conditions: 60 minutes
Method: as §2

[6] = pKa by potentiometric titration; type: physicochemical; conditions: aqueous solution, ionic strength 0.10, 25° C.
Method: PKa's were determined by standard potentiometric titration methods in aqueous solution with an ionic strength of 0.10 at 25° C. Values are reported as log K values of the equilibrium constant.

S. aureus (ATCC 29213) [7] = assay: Bacterial survival, toxin diazoxide and antidotes; type: cell-based; conditions: 60 minutes
Method: (§1) Medium contained 10 mM HEPES buffer at pH 7. […] Colonies were counted after 20 hours.

E. coli (ATCC 35150) = type: cell-based
Method: as §1

[8] = 100 uM Rotenone + 2.5 uM antidote
[9] = 100 uM Rotenone + 5 uM antidote
[10] = 0.2 mM Diazoxide + 12.5 uM antidote, T60
[11] = 0.2 mM Diazoxide + 50 uM antidote, T20
[12] = 0.2 mM Diazoxide + 100 uM antidote, T60
[13] = substance alone 100 uM, T20 (20 minutes)
[14] = substance alone 100 uM, T60 (60 minutes)
[15] = 100 uM Streptozotocin + 5 uM antidote
[16] = 0.2 mM Diazoxide + 200 uM antidote, T60
[17] = substance alone 200 uM, T20 (20 minutes)
[18] = substance alone 200 uM, T60 (60 minutes)
[19] = 0.2 mM Diazoxide + 1 uM antidote, T20
[20] = 0.2 mM Diazoxide + 1 uM antidote, T60
[21] = 0.2 mM Diazoxide + 2.5 uM antidote, T20
[22] = 0.2 mM Diazoxide + 2.5 uM antidote, T60
[23] = 0.15 mM Diazoxide + 5 uM antidote
[24] = 0.2 mM Diazoxide + 5 uM antidote, T60
[25] = 0.2 mM Diazoxide + 10 uM antidote, T60

1,4,8,11-tetraaza-1,4,8,11-tetra(2-piperidylethyl)cyclotetradecane [cyclam-piperidine]
Log Partition Coefficient Octanol:Water [1]: 0.7

1,4,8,11-tetraaza-1,4,8,11-tetrabicyclo[3.3.1]non-3-ylcyclotetradecane [Cyclam Adamantane]
Mean % Survival [2, 8]: 97% | Mean % Survival [2, 9]: 89% | Mean % Survival ([2]; 100 uM Rotenone + 12.5 uM antidote): 100% | Mean % Survival ([2]; substance alone 25 uM): 100% | Mean % Survival ([3]; 2 mM Alloxan + 2.5 uM antidote): 100% | Mean % Survival ([3]; 2 mM Alloxan + 10 uM antidote): 100% | Mean % Survival ([3]; substance alone 10 uM): 100% | Mean % Survival (S. aureus (ATCC 29213) [4]; 0.2 mM MPP^+ + 1 uM antidote): 100% | Mean % Survival (S. aureus (ATCC 29213) [4]; 0.2 mM MPP^+ + 2.5 uM antidote): 100% | Mean % Survival (S. aureus (ATCC 29213) [4]; 0.2 mM MPP^+ + 5.0 uM antidote): 100% | Mean % Survival (S. aureus (ATCC 29213) [4]; 0.2 mM MPP^+ + 7.5 uM antidote): 100% | Mean % Survival (S. aureus (ATCC 29213) [4]; substance alone 30 uM): 100% | Mean % Survival (M. Luteus (ATCC 499732); 0.2 mM Diazoxide + 12.5 uM antidote, T20): 100% | Mean % Survival (M. Luteus (ATCC 499732); [10]): 100% | Mean % Survival (M. Luteus (ATCC 499732); [11]): 100% | Mean % Survival (M. Luteus (ATCC 499732); 0.2 mM Diazoxide + 100 uM antidote, T20): 100% | Mean % Survival (M. Luteus (ATCC 499732); [12]): 100% | Mean % Survival (M. Luteus (ATCC 499732); [13]): 100% | Mean % Survival (M. Luteus (ATCC 499732); [14]): 100% | Mean % Survival ([5]; 100 uM Streptozotocin + 1 uM antidote): 93% | Mean % Survival [5, 15]: 100% | Mean % Survival ([5]; 100 uM Streptozotocin + 12.5 uM antidote): 100% | Mean % Survival ([5]; substance alone 12.5 uM): 100%

CNCCNCCCNCCNC [2,3,2-methylated on N1/N4, N,N′″-dimethyl 2,3,2-tetramine]
Log Partition Coefficient Octanol:Water [1]: 0.4

NCCSCCCSCCN [2,3,2-sulfur, 2-[3-(2-aminoethylthio)propylthio]ethylamine]
Mean % Survival (M. Luteus (ATCC 499732); [10]): 32% | Mean % Survival (M. Luteus (ATCC 499732); [12]): 67% | Mean % Survival (M. Luteus (ATCC 499732); [13]): 100% | Mean % Survival (M. Luteus (ATCC 499732); [14]): 100%

CNCCN(C)CCCN(C)CCNC [2,3,2-tetramethyl, N,N′,N″,N′″-tetramethyl 2,3,2-tetramine]
pKa(1) [6]: 10.2 | pKa(2) [6]: 9.4 | pKa(3) [6]: 6.1 | pKa(4) [6]: 2.9

O=C1NC(=O)C(=O)C(=O)N1 [Alloxan, reference compound]
Mean % Survival ([3]; substance alone 2 mM): 20%

CC1=NS(=O)(=O)c2cc(Cl)ccc2N1 [Diazoxide, reference compound]
Mean % Survival (S. aureus (ATCC 29213) [7]; substance alone 0.15 mM): 25% | Mean % Survival (M. Luteus (ATCC 499732); substance alone 0.2 mM, T20 (20 minutes)): 22% | Mean % Survival (M. Luteus (ATCC 499732); substance alone 0.2 mM, T60 (60 minutes)): 1%

N[C@@H](Cc1c[nH]cn1)C(=O)O [Histidine, reference compound]
Mean % Survival (E. coli (ATCC 35150)): 30% | Mean % Survival (E. coli (ATCC 35150); 0.5 mM Paraquat + 1.0 mM antidote, 60 minutes): 37% | Mean % Survival (E. coli (ATCC 35150); substance alone 0.5 mM, 60 minutes): 100% | Mean % Survival (E. coli (ATCC 35150); substance alone 1 mM, 60 minutes): 100% | Mean % Survival (S. aureus (ATCC 29213) [7]; 0.15 mM Diazoxide + 500 uM antidote): 58% | Mean % Survival (S. aureus (ATCC 29213) [7]; substance alone 0.5 mM): 100% | Mean % Survival (S. aureus (ATCC 29213) [4]; 0.15 mM MPP^+ + 0.5 mM antidote): 64% | Mean % Survival (S. aureus (ATCC 29213) [4]; substance alone 0.5 mM): 90% | Mean % Survival (M. Luteus (ATCC 499732); [16]): 54% | Mean % Survival (M. Luteus (ATCC 499732); [17]): 100% | Mean % Survival (M. Luteus (ATCC 499732); [18]): 100%

C[n+]1ccc(-c2ccccc2)cc1 [MPP^+, reference compound]
Mean % Survival (S. aureus (ATCC 29213) [4]; substance alone 0.1 mM): 31% | Mean % Survival (S. aureus (ATCC 29213) [4]; substance alone 0.15 mM): 15% | Mean % Survival (S. aureus (ATCC 29213) [4]; substance alone 0.2 mM): 6% | Mean % Survival (S. aureus (ATCC 29213) [4]; substance alone 0.25 mM): 3%

C=C(C)[C@H]1Cc2c(ccc3c2O[C@@H]2COc4cc(OC)c(OC)cc4[C@@H]2C3=O)O1 [Rotenone, reference compound]
Mean % Survival ([2]; substance alone 100 uM): 60%

NCCCCNCCCN [Spermidine, reference compound]
Mean % Survival (M. Luteus (ATCC 499732); [19]): 100% | Mean % Survival (M. Luteus (ATCC 499732); [20]): 96% | Mean % Survival (M. Luteus (ATCC 499732); [21]): 100% | Mean % Survival (M. Luteus (ATCC 499732); [22]): 100% | Mean % Survival (M. Luteus (ATCC 499732); 0.2 mM Diazoxide + 200 uM antidote, T20): 100% | Mean % Survival (M. Luteus (ATCC 499732); [17]): 100% | Mean % Survival (M. Luteus (ATCC 499732); [18]): 100% | Mean % Survival [5, 15]: 87% | Mean % Survival ([5]; substance alone 5 uM): 97%

NCCCNCCCCNCCCN [Spermine]
Mean % Survival (E. coli (ATCC 35150)): 100% and 96% and 60% | Mean % Survival (S. aureus (ATCC 29213) [7]; [23]): 71% | Mean % Survival (S. aureus (ATCC 29213) [7]; substance alone 5 uM): 99%

CN(N=O)C(=O)N[C@H]1C(O)O[C@H](CO)[C@@H](O)[C@@H]1O (stereo partly drawn) [Streptozotocin, N-(methylnitrosocarbamoyl)-Dglucosamine, reference compound]
Mean % Survival ([5]; substance alone 100 uM): 57%

CN1CCCN(C)CCN(C)CCCN(C)CC1 [cyclam-methylated, 1,4,8,11-tetraaza-1,4,8,11-tetramethylcyclotetradecane]
pKa ([6]; read-out: pKa(1)): 9.7 | pKa ([6]; read-out: pKa(2)): 9.3 | pKa ([6]; read-out: pKa(3)): 3.1 | pKa ([6]; read-out: pKa(4)): 2.6

(2-piperidylethyl)-{3-[(2-piperidylethyl)amino]propyl}amine [2,3,2-piperidine]
pKa(1) [6]: 9.9 | pKa(2) [6]: 9.3 | pKa(3) [6]: 6.4 | pKa(4) [6]: 3.6 | Mean % Survival (S. aureus (ATCC 29213) [7]; 0.15 mM Diazoxide + 2.5 uM antidote): 100% | Mean % Survival (S. aureus (ATCC 29213) [7]; [23]): 91% | Mean % Survival (S. aureus (ATCC 29213) [7]; 0.15 mM Diazoxide + 10 uM antidote): 92% | Mean % Survival (S. aureus (ATCC 29213) [7]; substance alone 10 uM): 100% | Mean % Survival [2, 8]: 100% | Mean % Survival [2, 9]: 100% | Mean % Survival ([2]; 100 uM Rotenone + 20 uM antidote): 100% | Mean % Survival ([2]; 100 uM Rotenone + 50 uM antidote): 100% | Mean % Survival ([2]; substance alone 50 uM): 100% | Mean % Survival (S. aureus (ATCC 29213) [4]; 0.25 mM MPP^+ + 1uM antidote): 54% | Mean % Survival (S. aureus (ATCC 29213) [4]; 0.25 mM MPP^+ + 2uM antidote): 54% | Mean % Survival (S. aureus (ATCC 29213) [4]; 0.25 mM MPP^+ + 5uM antidote): 69% | Mean % Survival (S. aureus (ATCC 29213) [4]; 0.25 mM MPP^+ + 7uM antidote): 100% | Mean % Survival (S. aureus (ATCC 29213) [4]; substance alone 7.5 uM): 100% | Mean % Survival (M. Luteus (ATCC 499732); [19]): 81% | Mean % Survival (M. Luteus (ATCC 499732); [21]): 81% | Mean % Survival (M. Luteus (ATCC 499732); [22]): 41% | Mean % Survival (M. Luteus (ATCC 499732); 0.2 mM Diazoxide + 5 uM antidote, T20): 100% | Mean % Survival (M. Luteus (ATCC 499732); [24]): 100% | Mean % Survival (M. Luteus (ATCC 499732); 0.2 mM Diazoxide + 10 uM antidote, T20): 100% | Mean % Survival (M. Luteus (ATCC 499732); [25]): 100% | Mean % Survival (M. Luteus (ATCC 499732); 0.2 mM Diazoxide + 20 uM antidote, T20): 100% | Mean % Survival (M. Luteus (ATCC 499732); 0.2 mM Diazoxide + 20 uM antidote, T60): 100% | Mean % Survival (M. Luteus (ATCC 499732); [11]): 100% | Mean % Survival (M. Luteus (ATCC 499732); substance alone 50 uM, T20 (20 minutes)): 100% | Mean % Survival (M. Luteus (ATCC 499732); substance alone 50 uM, T60 (60 minutes)): 100% | Mean % Survival ([5]; 100 uM Streptozotocin + 2.5 uM antidote): 70% | Mean % Survival [5, 15]: 100% | Mean % Survival ([5]; 100 uM Streptozotocin + 20 uM antidote): 100% | Mean % Survival ([5]; substance alone 20 uM): 100%

Vanadyl (1,4,8,11-tetraaza-1,4,8,11-tetrabicyclo[3.3.1]non-3-ylcyclotetradecane)(Cl)2 [Vanadium Cyclam Adamantane]
Mean % Survival (M. Luteus (ATCC 499732); [20]): 100% | Mean % Survival (M. Luteus (ATCC 499732); [24]): 100% | Mean % Survival (M. Luteus (ATCC 499732); [25]): 100% | Mean % Survival (M. Luteus (ATCC 499732); 0.2 mM Diazoxide + 50 uM antidote, T60): 100% | Mean % Survival (M. Luteus (ATCC 499732); [16]): 100% | Mean % Survival (M. Luteus (ATCC 499732); [17]): 100% | Mean % Survival (M. Luteus (ATCC 499732); [18]): 100%

[2-(bicyclo[3.3.1]non-3-ylamino)ethyl](3-{2-(bicyclo[3.3.1]non-3-ylamino)ethyl]amino}propyl)amine [2,3,2-tetramine adamantane]
Mean % Survival ([3]; 2 mM Alloxan + 1 uM antidote): 51% | Mean % Survival ([3]; 2 mM Alloxan + 100 uM antidote): 69% | Mean % Survival ([3]; substance alone 100 uM): 100%
